# Patent publication US20210284638A1 (Saint Louis University, priority 2018, published 2021)
# Where a name gives a salt, the structure may show the parent alone.
# How the values were obtained:
# Assay type in all cases: binding
# [1] = target: T1, Recombinant human integrin αVβ3 (Homo sapiens, UniProt P05106+P06756); experiment: Solid Phase Receptor Assay for αVβ3 function; settings: plate-bound human vitronectin; read-out: αVβ3 SPRA IC50
# T1 construct: purchased R&D Systems 3050-AV
# Protocol: C. […] Wells were washed 3 times with 150 μL TBS+ and then 150 μL of blocking buffer (TBS+ with 1% bovine serum albumin, Sigma A7906) was added. The plate was incubated for 1 hr at 37° C. and then washed 3× with TBS+ buffer. […] Compounds were diluted to 20 μM and then 1 μL was added to each well of the plate according to a standard template with each sample repeated in triplicate. After incubation for two hours at room temperature, the plate was washed 3× with 150 μL of TBS+ buffer. To each well, 50 μL of biotinylated anti-αV antibody (R&D Systems, BAF1219) at 0.5 μg/mL in TBS+/0.1% BSA were added and the plate covered and incubated for 1 hr at room temperature. After washing the plate 3× with 150 μL of TBS+ buffer, 50 μL of streptavidin-conjugated horseradish peroxidase (R&D Systems, DY998) diluted in TBS+ blocking buffer were added to the wells and the plate incubated for 20 min at room temperature. The plate was washed 3× with TBS+ buffer followed by 50 μL of TMB substrate (Sigma, T4444) added to each well in the dark and the plate was incubated for 25 min at room temperature. 25 μL of 1.0 M phosphoric acid was added as a stop solution and the plates were read at 450 nm using a Spectramax plate reader.
# [2] = target: T2, Recombinant human integrin α5β1 (Homo sapiens, UniProt P05556+P08648); experiment: Solid Phase Receptor Assay (SPRA) for α5β1 function; settings: plate-bound human fibronectin
# T2 construct: purchased R&D Systems 3230-A5
# T2 sequence (P08648 42-995 limits assumed): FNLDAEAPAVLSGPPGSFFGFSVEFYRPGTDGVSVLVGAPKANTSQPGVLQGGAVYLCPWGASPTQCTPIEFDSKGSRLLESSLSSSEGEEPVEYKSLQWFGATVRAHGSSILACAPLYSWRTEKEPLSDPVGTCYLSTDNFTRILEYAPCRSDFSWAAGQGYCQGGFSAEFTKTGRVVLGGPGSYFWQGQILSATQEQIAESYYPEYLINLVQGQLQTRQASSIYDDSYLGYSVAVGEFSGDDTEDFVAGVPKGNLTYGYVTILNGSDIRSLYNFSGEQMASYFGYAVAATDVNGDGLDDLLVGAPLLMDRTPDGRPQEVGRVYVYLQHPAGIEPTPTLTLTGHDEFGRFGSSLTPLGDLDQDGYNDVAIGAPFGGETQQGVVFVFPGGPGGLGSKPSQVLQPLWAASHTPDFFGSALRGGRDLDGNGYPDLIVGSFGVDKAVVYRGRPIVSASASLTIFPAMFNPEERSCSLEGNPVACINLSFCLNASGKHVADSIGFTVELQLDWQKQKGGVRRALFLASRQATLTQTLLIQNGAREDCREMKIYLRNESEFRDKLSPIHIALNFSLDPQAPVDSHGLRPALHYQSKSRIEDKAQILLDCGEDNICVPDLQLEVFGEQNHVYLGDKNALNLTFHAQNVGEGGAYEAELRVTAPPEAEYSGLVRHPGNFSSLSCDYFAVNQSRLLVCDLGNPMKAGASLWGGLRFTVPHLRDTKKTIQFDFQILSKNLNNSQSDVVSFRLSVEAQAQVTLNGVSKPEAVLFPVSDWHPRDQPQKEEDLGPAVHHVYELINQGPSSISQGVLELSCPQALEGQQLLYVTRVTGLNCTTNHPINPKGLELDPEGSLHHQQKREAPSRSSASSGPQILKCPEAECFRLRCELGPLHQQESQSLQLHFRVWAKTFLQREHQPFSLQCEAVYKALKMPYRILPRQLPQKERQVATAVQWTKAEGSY
# T2 sequence (P05556 21-728 limits assumed): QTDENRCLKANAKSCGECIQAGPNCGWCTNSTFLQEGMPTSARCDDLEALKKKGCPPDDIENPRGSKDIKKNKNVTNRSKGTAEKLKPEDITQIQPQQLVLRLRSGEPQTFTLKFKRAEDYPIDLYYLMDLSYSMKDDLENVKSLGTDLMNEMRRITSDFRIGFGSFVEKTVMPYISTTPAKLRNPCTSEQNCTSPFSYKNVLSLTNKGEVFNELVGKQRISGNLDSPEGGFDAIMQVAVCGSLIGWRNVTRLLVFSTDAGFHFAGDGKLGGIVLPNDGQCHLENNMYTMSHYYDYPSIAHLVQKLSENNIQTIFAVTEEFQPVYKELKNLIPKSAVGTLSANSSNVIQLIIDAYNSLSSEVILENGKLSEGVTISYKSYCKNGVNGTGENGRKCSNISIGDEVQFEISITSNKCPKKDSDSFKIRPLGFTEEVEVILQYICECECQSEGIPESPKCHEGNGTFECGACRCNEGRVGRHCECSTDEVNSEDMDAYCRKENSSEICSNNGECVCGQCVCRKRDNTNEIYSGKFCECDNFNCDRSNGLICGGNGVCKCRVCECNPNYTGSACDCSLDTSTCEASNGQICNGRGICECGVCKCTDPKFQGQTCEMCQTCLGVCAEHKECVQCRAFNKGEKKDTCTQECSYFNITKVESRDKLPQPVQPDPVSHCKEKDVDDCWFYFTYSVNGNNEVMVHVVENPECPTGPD
# Protocol: A. Solid Phase Receptor Assay (SPRA) for α5β1 Function
# Wells were washed 3 times with 150 μL TBS+ and then 150 μL of blocking buffer (TBS+ with 1% bovine serum albumin, Sigma A7906) was added. The plate was incubated for 1 hr at 37° C. and then washed 3× with TBS+ buffer. […] Compounds were diluted to 20 μM and then 1 μL was added to each well of the plate according to a standard template with each sample repeated in triplicate. After incubation for two hours at room temperature, the plate was washed 3× with 150 μL of TBS+ buffer. To each well, 50 μL of biotinylated anti-α5 antibody (R&D Systems, BAF1864) at 0.5 μg/mL in TBS+/0.1% BSA were added and the plate covered and incubated for 1 hr at room temperature. After washing the plate 3× with 150 μL of TBS+ buffer, 50 μL of streptavidin-conjugated horseradish peroxidase (R&D Systems, DY998) diluted in TBS+ blocking buffer were added to the wells and the plate incubated for 20 min at room temperature. The plate was washed 3× with TBS+ buffer followed by 50 μL of room temperature TMB substrate (Sigma, T4444) added to each well in the dark and the plate incubated for 25 min at room temperature. 25 μL of 1.0 M phosphoric acid was added as a stop solution and the plates were read at 450 nm using a Spectramax plate reader.
# [3] = target: T3, Recombinant human integrin αVβ8 (Homo sapiens, UniProt P06756+P26012); experiment: Solid Phase Receptor Assay for αVβ8 function; settings: plate-bound human LAP; read-out: αVβ8 SPRA IC50
# T3 construct: purchased R&D Systems 4135-AV
# T3 sequence (P06756 31-992 limits assumed): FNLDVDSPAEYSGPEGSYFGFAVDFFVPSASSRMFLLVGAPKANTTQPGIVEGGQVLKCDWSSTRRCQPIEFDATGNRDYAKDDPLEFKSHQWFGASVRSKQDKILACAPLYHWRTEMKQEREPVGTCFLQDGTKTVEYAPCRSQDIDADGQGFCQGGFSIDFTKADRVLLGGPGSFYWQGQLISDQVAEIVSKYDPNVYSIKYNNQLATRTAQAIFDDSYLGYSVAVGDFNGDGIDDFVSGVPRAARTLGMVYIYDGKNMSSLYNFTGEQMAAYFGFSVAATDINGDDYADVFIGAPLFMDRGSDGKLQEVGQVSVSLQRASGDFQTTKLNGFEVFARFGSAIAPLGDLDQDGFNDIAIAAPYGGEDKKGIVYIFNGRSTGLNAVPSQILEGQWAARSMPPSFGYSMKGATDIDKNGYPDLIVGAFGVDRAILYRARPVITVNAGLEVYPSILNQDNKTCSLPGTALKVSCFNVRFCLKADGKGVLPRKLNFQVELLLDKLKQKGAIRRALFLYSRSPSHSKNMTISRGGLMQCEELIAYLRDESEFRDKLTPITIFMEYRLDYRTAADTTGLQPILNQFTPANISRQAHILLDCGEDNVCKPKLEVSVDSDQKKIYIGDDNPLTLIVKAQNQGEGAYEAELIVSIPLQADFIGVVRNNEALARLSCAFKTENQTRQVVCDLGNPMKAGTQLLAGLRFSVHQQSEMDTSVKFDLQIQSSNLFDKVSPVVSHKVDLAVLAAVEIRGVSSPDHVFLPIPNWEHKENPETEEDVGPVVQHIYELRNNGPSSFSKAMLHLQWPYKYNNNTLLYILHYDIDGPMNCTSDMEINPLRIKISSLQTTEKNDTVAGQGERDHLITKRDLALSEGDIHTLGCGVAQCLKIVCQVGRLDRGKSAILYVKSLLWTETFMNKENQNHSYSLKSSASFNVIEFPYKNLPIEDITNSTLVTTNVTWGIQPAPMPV
# T3 sequence (P26012 43-684 limits assumed): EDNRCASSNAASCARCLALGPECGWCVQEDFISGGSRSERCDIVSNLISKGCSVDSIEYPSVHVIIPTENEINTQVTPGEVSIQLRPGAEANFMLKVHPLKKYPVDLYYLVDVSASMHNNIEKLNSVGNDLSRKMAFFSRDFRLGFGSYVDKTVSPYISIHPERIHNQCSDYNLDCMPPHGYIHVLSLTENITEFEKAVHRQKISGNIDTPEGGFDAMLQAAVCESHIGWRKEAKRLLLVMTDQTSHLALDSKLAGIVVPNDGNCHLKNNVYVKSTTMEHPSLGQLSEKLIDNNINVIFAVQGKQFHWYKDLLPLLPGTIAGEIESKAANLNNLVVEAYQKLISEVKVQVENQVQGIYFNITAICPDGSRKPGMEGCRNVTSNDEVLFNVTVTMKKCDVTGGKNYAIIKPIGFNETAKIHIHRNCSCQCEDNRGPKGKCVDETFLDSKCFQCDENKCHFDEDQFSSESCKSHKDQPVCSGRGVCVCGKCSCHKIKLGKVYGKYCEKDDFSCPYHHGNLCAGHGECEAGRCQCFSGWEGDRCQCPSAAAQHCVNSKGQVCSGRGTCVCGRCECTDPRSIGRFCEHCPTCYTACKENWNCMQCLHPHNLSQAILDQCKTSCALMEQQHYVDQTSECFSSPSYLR
# Protocol: F. Solid Phase Receptor Assay (SFRA) for αVβ8 Function
# Wells were washed 3 times with 150 μL TBS+ and then 150 μL of blocking buffer (TBS+ with 1% bovine serum albumin, Sigma A7906) was added. The plate was incubated for 1 hr at 37° C. and then washed 3× with TBS+. […] Compounds were diluted to 20 μM and 1 μL was added to each well of the plate according to a standard template with each sample repeated in triplicate. After incubation for two hours at room temperature, the plate was washed 3× with 150 μL of TBS+. To each well, 50 μL of biotinylated anti-αV antibody (R&D Systems, BAF1219) at 1 μg/mL in TBS+/0.1% BSA were added and the plate was covered and incubated for 1 hr at room temperature. After washing the plate 3× with 150 μL of TBS+ buffer, 50 μL of streptavidin-conjugated horseradish peroxidase (R&D Systems, DY998) diluted in TBS+ blocking buffer were added to the wells and the plate incubated for 20 min at room temperature. The plate was washed 3× with TBS+ followed by 50 μL of TMB substrate (Sigma T4444) added to each well in the dark and the plate incubated for 10 min at room temperature. 25 μL of 1.0 M phosphoric acid was added as a stop solution and the plates were read at 450 nm using a Spectramax plate reader.
# [4] = target: T4, Recombinant human integrin αVβ5 (Homo sapiens, UniProt P06756+P18084); experiment: Solid Phase Receptor Assay (SPRA) for αVβ5 function; settings: plate-bound human vitronectin
# T4 construct: purchased R&D Systems 2528-AV
# T4 sequence (P06756 31-992 limits assumed): as the sequence (P06756 31-992 limits assumed) above
# T4 sequence (P18084 24-719 limits assumed): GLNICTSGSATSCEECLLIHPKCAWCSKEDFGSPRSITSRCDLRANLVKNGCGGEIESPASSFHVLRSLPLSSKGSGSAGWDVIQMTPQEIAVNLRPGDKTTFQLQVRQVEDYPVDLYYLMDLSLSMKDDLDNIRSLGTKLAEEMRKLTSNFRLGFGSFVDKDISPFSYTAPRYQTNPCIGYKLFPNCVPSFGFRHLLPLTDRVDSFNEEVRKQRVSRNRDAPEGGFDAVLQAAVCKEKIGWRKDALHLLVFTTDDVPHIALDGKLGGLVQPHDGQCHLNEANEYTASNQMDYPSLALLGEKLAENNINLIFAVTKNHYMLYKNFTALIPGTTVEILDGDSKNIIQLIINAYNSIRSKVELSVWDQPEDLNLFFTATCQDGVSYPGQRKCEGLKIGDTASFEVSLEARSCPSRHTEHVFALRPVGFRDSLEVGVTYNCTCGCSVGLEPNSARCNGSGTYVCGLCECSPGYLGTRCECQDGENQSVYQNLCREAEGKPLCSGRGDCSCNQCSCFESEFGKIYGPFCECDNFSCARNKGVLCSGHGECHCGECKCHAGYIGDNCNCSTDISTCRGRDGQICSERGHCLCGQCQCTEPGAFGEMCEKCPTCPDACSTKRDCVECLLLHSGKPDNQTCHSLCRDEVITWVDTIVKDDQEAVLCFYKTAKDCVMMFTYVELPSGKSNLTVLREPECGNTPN
# Protocol: D. Solid Phase Receptor Assay (SPRA) for αVβ5 Function
# Wells were washed 3 times with 150 μL TBS+ and then 150 μL of blocking buffer (TBS+ with 1% bovine serum albumin, Sigma A7906) was added. The plate was incubated for 1 hr at 37° C. and then washed 3× with TBS+ buffer. […] Compounds were diluted to 20 μM and then 1 μL was added to each well of the plate according to a standard template with each sample repeated in triplicate. After incubation for two hours at room temperature, the plate was washed 3× with 150 μL of TBS+ buffer. To each well, 50 μl of biotinylated anti-αV antibody (R&D Systems, BAF1219) at 0.5 μg/mL in TBS+/0.1% BSA at 0.5 μg/mL were added and the plate covered and incubated for 1 hr at room temperature. After washing the plate 3× with 150 μL of TBS+ buffer, 50 μL of streptavidin-conjugated horseradish peroxidase (R&D Systems, DY998) diluted in TBS+ blocking buffer were added to the wells and the plate incubated for 20 min at room temperature. The plate was washed 3× with TBS+ buffer followed by 50 μL of TMB substrate (Sigma T4444) added to each well in the dark and the plate incubated for 5 min at room temperature. 25 μL of 1.0 M phosphoric acid was added as a stop solution and the plates were read at 450 nm using a Spectramax plate reader.
# T1 sequence (P06756 31-992 limits assumed): as the sequence (P06756 31-992 limits assumed) above
# T1 sequence (P05106 27-718 limits assumed): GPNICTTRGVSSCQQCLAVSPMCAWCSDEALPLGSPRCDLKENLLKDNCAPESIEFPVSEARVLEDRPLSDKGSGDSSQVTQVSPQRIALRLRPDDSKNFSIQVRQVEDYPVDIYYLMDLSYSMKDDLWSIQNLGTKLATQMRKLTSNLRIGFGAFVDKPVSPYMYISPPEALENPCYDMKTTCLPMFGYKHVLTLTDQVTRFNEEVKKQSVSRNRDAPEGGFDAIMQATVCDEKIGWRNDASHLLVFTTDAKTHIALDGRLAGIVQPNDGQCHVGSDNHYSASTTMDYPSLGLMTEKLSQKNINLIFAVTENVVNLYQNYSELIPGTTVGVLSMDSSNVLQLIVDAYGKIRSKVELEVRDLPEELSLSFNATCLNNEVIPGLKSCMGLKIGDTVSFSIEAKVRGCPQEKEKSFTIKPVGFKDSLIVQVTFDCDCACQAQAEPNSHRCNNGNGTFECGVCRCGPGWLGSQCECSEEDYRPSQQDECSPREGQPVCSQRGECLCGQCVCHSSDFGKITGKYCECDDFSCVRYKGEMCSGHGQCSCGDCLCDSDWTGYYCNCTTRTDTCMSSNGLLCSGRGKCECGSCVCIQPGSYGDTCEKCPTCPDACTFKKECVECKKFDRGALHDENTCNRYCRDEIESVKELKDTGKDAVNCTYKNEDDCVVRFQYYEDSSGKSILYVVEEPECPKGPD
Structure (SMILES),IC50 [1] [nM],IC50 [2] [nM],IC50 [3] [nM],IC50 [4] [nM]
"Cn1nc(CC(CC(=O)O)c2cc(Br)cc(S(F)(F)(F)(F)F)c2)cc1OCCc1ccc2c(n1)NCCC2 (stereo not drawn) [Example 3, 3-[3-bromo-5-(pentafluoro-sulfanyl)phenyl]-4-[1-methyl-5-[2-(5,6,7,8-tetrahydro-1,8-naphthyridin-2-yl)ethoxy]pyrazol-3-yl]butanoic acid]",8,31,13,2
"COc1c(C(C)C)cc(C(CC(=O)O)Cc2csc(CCCc3ccc4c(n3)NCCC4)n2)cc1C(C)C (stereo not drawn) [Example 26, 3-(3,5-diisopropyl-4-methoxy-phenyl)-4-[2-[3-(5,6,7,8-tetrahydro-1,8-naphthyridin-2-yl)propyl]thiazol-4-yl]butanoic acid]",530,61,38,610
"COCC1(c2ccc(OC)c(C(CC(=O)O)Cc3cc(OCCc4ccc5c(n4)NCCC5)n(C)n3)c2)CCOCC1 (stereo not drawn) [Example 45, 3-(2-methoxy-5-(4-(methoxymethyl)tetrahydro-2H-pyran-4-yl)phenyl)-4-(1-methyl-5-(2-(5,6,7,8-tetrahydro-1,8-naphthyridin-2-yl)ethoxy)-1H-pyrazol-3-yl)butanoic acid]",1200,13,1000,1200
"Cn1nc(CC(CC(=O)O)c2cc(C(C)(C)C)cc(C(C)(C)C(F)(F)F)c2)cc1OCCc1ccc2c(n1)NCCC2 (stereo not drawn) [Example 5, 3-(3-(tert-butyl)-5-(1,1,1-trifluoro-2-methylpropan-2-yl)phenyl)-4-(1-methyl-5-(2-(5,6,7,8-tetrahydro-1,8-naphthyridin-2-yl)ethoxy)-1H-pyrazol-3-yl) butanoic acid]",140,2,20,160
"CC(C)(C)c1cc(C(CC(=O)O)Cc2csc(CCCc3ccc4c(n3)NCCC4)n2)cc(C2(C(F)F)CC2)c1 (stereo not drawn) [Example 30, 3-[3-tert-butyl-5-[1-(difluoromethyl)cyclopropyl]phenyl]-4-[2-[3-(5,6,7,8-tetrahydro-1,8-naphthyridin-2-yl)propyl]thiazol-4-yl]butanoic acid]",720,30,25,260
"COCC1(c2cc(C(CC(=O)O)Cc3csc(CCCc4ccc5c(n4)NCCC5)n3)cc(C(C)(C)C)c2)CCOCC1 (stereo not drawn) [Example 32, 3-[3-tert-butyl-5-[4-(methoxymethyl)tetrahydropyran-4-yl]phenyl]-4-[2-[3-(5,6,7,8-tetrahydro-1,8-naphthyridin-2-yl)propyl]thiazol-4-yl]butanoic acid]",600,37,14,240
"Cn1nc(CC(CC(=O)O)c2cc(C(C)(C)C)ccc2Br)cc1OCCc1ccc2c(n1)NCCC2 (stereo not drawn) [Example 17, 3-(2-bromo-5-(tert-butyl)phenyl)-4-(1-methyl-5-(2-(5,6,7,8-tetrahydro-1,8-naphthyridin-2-yl)ethoxy)-1H-pyrazol-3-yl)butanoic acid]",930,120,110,230
"COc1c(C(CC(=O)O)Cc2cc(OCCc3ccc4c(n3)NCCC4)n(C)n2)cc(C(C)(C)C)cc1C(C)(C)C (stereo not drawn) [Example 11, 3-(3,5-di-tert-butyl-2-methoxyphenyl)-4-(1-methyl-5-(2-(5,6,7,8-tetrahydro-1,8-naphthyridin-2-yl)ethoxy)-1H-pyrazol-3-yl)butanoic acid]",13000,15000,740,17000
"COc1ccc(C2=CCOCC2)cc1[C@@H](CC(=O)O)Cc1csc(CCCc2ccc3c(n2)NCCC3)n1 [Example 37B, (R)-3-(5-(3,6-dihydro-2H-pyran-4-yl)-2-methoxyphenyl)-4-(2-(3-(5,6,7,8-tetrahydro-1,8-naphthyridin-2-yl)propyl)thiazol-4-yl)butanoic acid trifluoroacetate]",940,2800,5600,62
